Patent US20100221241A1, “C[…] ENVELOPE-BASED IMMUNOGEN THAT SIMU[…] RECEPTOR AND […] SITES” (UNIVERSITY OF MARYLAND BIOTECHNOLOGY INSTITUTE, priority 2005, published 2010)
No end group written: not given here.

How the values were obtained:
[1] = tested on: trimers (soluble gp120 trimer); experiment: Surface Plasmon Resonance binding to trimers; design: species or system HIV; conditions: compared with monomeric CD4M9
Excerpt: Recently, the X-ray crystal structure of free gp120 was solved (1) and along with X-ray tomography images of envelope spikes (3), used to build a computational model of the envelope trimer (1). […] The line between the binding sites is a “ruler” divided into 1 nm units, which was used to estimate distances between binding sites.

[2] = tested on: HIV; conditions: compared with monomeric CD4M9; used with surface HIV virion; cited from earlier work

Substance: bi-CD4M9-MS: bivalent polypeptide containing two CD4M9 moieties separated by polyethylene glycol linker placing the binding residues 5.2 nm apart (CNLATCQLTCKSLGLLGKCAGSFCACGP; cysteine pairing not given here; also: bivalent: two CD4M9 moieties joined by a polyethylene glycol linker)
- forward rate constant for binding [1]: significantly different from monomeric CD4M9
- HIV inhibition [2]: more potent HIV inhibition than monomeric CD4M9
